From patent US20230159509A1 (Amathus Therapeutics, Inc., priority 2020, published 2023)

Molecular target: T1, TRAP1 enzyme (Homo sapiens, UniProt Q12931)
T1 construct: 150 nM Trap1 enzyme was incubated with various concentrations of the test compound
T1 sequence (Q12931 60-704): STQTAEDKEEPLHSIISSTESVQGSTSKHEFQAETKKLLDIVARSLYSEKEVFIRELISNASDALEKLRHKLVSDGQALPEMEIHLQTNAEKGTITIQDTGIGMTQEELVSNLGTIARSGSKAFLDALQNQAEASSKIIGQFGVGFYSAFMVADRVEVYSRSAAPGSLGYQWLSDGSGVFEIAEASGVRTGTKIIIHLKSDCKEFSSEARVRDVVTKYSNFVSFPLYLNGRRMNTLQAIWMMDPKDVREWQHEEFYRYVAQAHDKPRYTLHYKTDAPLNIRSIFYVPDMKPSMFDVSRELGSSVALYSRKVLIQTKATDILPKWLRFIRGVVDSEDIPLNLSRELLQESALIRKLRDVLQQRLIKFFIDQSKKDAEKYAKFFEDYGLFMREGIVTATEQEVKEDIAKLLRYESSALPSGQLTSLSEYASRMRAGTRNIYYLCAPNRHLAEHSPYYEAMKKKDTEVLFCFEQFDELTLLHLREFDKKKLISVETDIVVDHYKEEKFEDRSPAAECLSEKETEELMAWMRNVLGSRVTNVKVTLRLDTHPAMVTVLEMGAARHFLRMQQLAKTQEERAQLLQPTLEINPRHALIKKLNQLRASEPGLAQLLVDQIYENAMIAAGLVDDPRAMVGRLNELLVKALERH
Assay: ADP Glo assay of TRAP1 ATPase activity
Assay type: biochemical
Settings: for activation at 50 µM: 1 h, compound concentration 50 μM, read-out: ADP-Glo Percent Activation at 50 μM; for EC50: concentration for half maximal activation, read-out: ADP GLO DRC: GeoMean EC50; for Emax: maximal percent activation, read-out: ADP GLO DRC: Mean Emax
Description: Potency of test compounds to modulate the ATPase activity of TRAP1 enzyme was evaluated using ADP Glo assay. The assay is based on quantification of the ADP generated from ATP in the ATPase reaction. The assay is performed in two steps; first, after the ATPase reaction an equal volume of ADP-Glo™ Reagent is added to terminate the ATPase reaction and deplete the remaining ATP. Second, the Kinase Detection Reagent is added to simultaneously convert ADP to ATP and allow the newly synthesized ATP to be measured using a luciferase/luciferin reaction.
All the assays were carried out in a 384-well Proxiplate. The buffer used was 25 mM Pipes pH-7.5, 40 mM KCl, 0.05 mM MgCl2, 0.025% BSA, 0.316 mM EGTA, 0.003% Empigen, 0.01% Igepal. 150 nM Trap1 enzyme was incubated with various concentrations of the test compound (0.79 μM-100 μM) at 37° C. for 30 mins (except in blank wells). 20 μM ATP was added to each well to start the reaction. The plate was spun for 1 min at 1200 rpm and then incubated at 37° C. for 60 mins. 5 μl of ADP Glo reagent was added to all the wells and spun the plate for 1 min at 1200 rpm and kept it on a shaker at ambient temperature for 60 mins. 10 μl of kinase detection mix was added to all the wells and the plate was read for Luminescence at 495 nm. The amount of ADP released was estimated from ATP/ADP standard curve generated at the same experimental conditions. Emax (Maximal percent activation) and EC50 (concentration for half maximal activation) were estimated by fitting the dose response data to a sigmoidal curve fitting equation using Graphpad Prism software V. 8.

SMILES | activation at 50 µM | EC50 | Emax
COc1ncc(NC(=O)c2csc(C(F)(F)F)c2)cc1S(=O)(=O)Nc1c(C)cccc1C [compound 2683] | 120 to 150% | – | –
COc1ncc(NC(=O)c2cccnc2N2CCOCC2)cc1S(=O)(=O)Nc1c(C)cccc1C [compound 2759] | 181 to 352% | – | –
COc1ncc(NC(=O)c2ncc(-c3ccccc3)o2)cc1S(=O)(=O)Nc1cccc(C(F)(F)F)n1 [compound 2119] | – | 20 to 100 µM | 200 to 300%
COc1ncc(NC(=O)c2ccn(C)c2)cc1S(=O)(=O)Nc1c(C)cccc1C [compound 2666] | 120 to 150% | – | –
COc1ncc(NC(=O)c2noc3c2CCCC3)cc1S(=O)(=O)Nc1c(C)cccc1C [compound 2725] | 181 to 352% | – | –
COc1ncc(NC(=O)c2ncc(-c3ccccc3)o2)cc1S(=O)(=O)Nc1cccc(C#N)n1 [compound 2148] | – | 20 to 100 µM | 160 to 199%
COc1ncc(NC(=O)c2csc(-c3ccccc3)n2)cc1S(=O)(=O)Nc1cccc(C#N)c1C [compound 1406, N-(5-(N-(3-cyano-2-methylphenyl)sulfamoyl)-6-methoxypyridin-3-yl)-2-phenylthiazole-4-carboxamide] | – | < 10 µM | 119 to 159%
COc1ncc(NC(=O)c2csc(-c3ccccc3)n2)cc1S(=O)(=O)Nc1c(C)cccc1P(C)(C)=O [compound 2506] | – | 20 to 100 µM | 200 to 300%
COc1ncc(NC(=O)c2cn(C(C)C)nn2)cc1S(=O)(=O)Nc1c(C)cccc1C [compound 2538] | 120 to 150% | – | –
COc1ncc(NC(=O)c2coc(-c3ccc(F)cc3)n2)cc1S(=O)(=O)Nc1c(C)cc(F)cc1C [compound 1937, N-(5-(N-(4-fluoro-2,6-dimethylphenyl)sulfamoyl)-6-methoxypyridin-3-yl)-2-(4-fluorophenyl) oxazole-4-carboxamide] | – | < 10 µM | 119 to 159%
COc1ncc(NC(=O)c2ncc(-c3ccccc3)o2)cc1S(=O)(=O)Nc1c(Cl)cccc1C(F)(F)F [compound 1303, N-(5-(N-(2-chloro-6-(trifluoromethyl)phenyl)sulfamoyl)-6-methoxypyridin-3-yl)-5-phenyloxazole-2-carboxamide] | – | 10 to 20 µM | 160 to 199%
COc1ncc(NC(=O)c2cccc(C(=O)N(C)C)c2)cc1S(=O)(=O)Nc1c(C)cccc1C [compound 2613] | 151 to 180% | – | –
[2H]c1c([2H])c([2H])c(C([2H])([2H])[2H])c(NS(=O)(=O)c2cc(NC(=S)c3coc(-c4ccccc4)n3)cnc2OC)c1[2H] [compound 2493] | – | 20 to 100 µM | 160 to 199%
COc1ncc(NC(=O)c2ccc(N3CCOCC3)c(F)c2)cc1S(=O)(=O)Nc1c(C)cccc1C [compound 2655] | 181 to 352% | – | –
COc1ncc(NC(=O)c2ccc(C3CCN(C)CC3)cc2)cc1S(=O)(=O)Nc1c(C)cccc1C [compound 2745] | 151 to 180% | – | –
COc1ncc(NC(=O)c2csc(-c3ccccc3)n2)cc1S(=O)(=O)Nc1ccnc2cccnc12 [compound 1779] | – | 20 to 100 µM | 119 to 159%
COc1ncc(NC(=O)c2noc3ccccc23)cc1S(=O)(=O)Nc1c(C)cccc1C [compound 1421, N-(5-(N-(2,6-dimethylphenyl)sulfamoyl)-6-methoxypyridin-3-yl) benzo[d]isoxazole-3-carboxamide] | – | < 10 µM | 200 to 300%
COc1ncc(NC(=O)c2coc(-c3ccccc3)n2)cc1S(=O)(=O)Nc1c(C)cccc1C [compound 1312, N-(5-(N-(2,6-dimethylphenyl)sulfamoyl)-6-methoxypyridin-3-yl)-2-phenyloxazole-4-carboxamide] | – | < 10 µM | 200 to 300%
COc1ncc(NC(=O)c2coc(-c3ccccc3)n2)cc1S(=O)(=O)Nc1nc(C(C)(C)C)ns1 [compound 2403] | – | 20 to 100 µM | 200 to 300%
COc1ncc(NC(=O)c2ccc(NC(C)=O)c(C)c2)cc1S(=O)(=O)Nc1c(C)cccc1C [compound 2688] | 151 to 180% | – | –
COc1ncc(NC(=O)c2csc(-c3ccccc3)n2)cc1S(=O)(=O)Nc1ccc(C#N)nc1 [compound 1785] | – | 20 to 100 µM | 200 to 300%
COc1ncc(NC(=O)c2cccn2C)cc1S(=O)(=O)Nc1c(C)cccc1C [compound 2539] | 181 to 352% | – | –

SMILES | activation at 50 µM | EC50 | Emax
COc1ncc(NC(=O)c2cc(OC)n(C)n2)cc1S(=O)(=O)Nc1c(C)cccc1C [compound 2747] | 151 to 180% | – | –
COc1ncc(NC(=O)c2cnsn2)cc1S(=O)(=O)Nc1c(C)cccc1C [compound 2569] | 120 to 150% | – | –
COc1ncc(NC(=O)c2ncc(-c3ccccc3)o2)cc1S(=O)(=O)Nc1nc(C(C)(C)C)ns1 [compound 2396] | – | 20 to 100 µM | 160 to 199%
CCCc1cc(C(=O)Nc2cnc(OC)c(S(=O)(=O)Nc3c(C)cccc3C)c2)n(C)n1 [compound 2626] | 181 to 352% | – | –
COc1ncc(NC(=O)c2coc(-c3ccccc3)n2)cc1S(=O)(=O)Nc1c(C)cccc1F [compound 1485, N-(5-(N-(2-fluoro-6-methylphenyl)sulfamoyl)-6-methoxypyridin-3-yl)-2-phenyloxazole-4-carboxamide] | – | < 10 µM | 119 to 159%
CCc1cccc2sc(NS(=O)(=O)c3cc(NC(=O)c4ncc(-c5ccccc5)o4)cnc3OC)nc12 [compound 1552] | – | 20 to 100 µM | 119 to 159%
COc1ncc(NC(=O)c2cnn(C3CC3)c2)cc1S(=O)(=O)Nc1c(C)cccc1C [compound 2552] | 151 to 180% | – | –
COc1ncc(NC(=O)c2nccn2C)cc1S(=O)(=O)Nc1c(C)cccc1C [compound 2772] | 120 to 150% | – | –
CCN1CCN(c2ccc(C(=O)Nc3cnc(OC)c(S(=O)(=O)Nc4c(C)cccc4C)c3)cc2)CC1 [compound 2791] | 181 to 352% | – | –
COc1ncc(NC(=O)c2ccc3c(c2)NC(=O)C3)cc1S(=O)(=O)Nc1c(C)cccc1C [compound 2727] | 181 to 352% | – | –
COc1ncc(NC(=O)c2ncoc2C)cc1S(=O)(=O)Nc1c(C)cccc1C [compound 2718] | 151 to 180% | – | –
COc1ncc(NC(=O)c2cc(C)nn2C)cc1S(=O)(=O)Nc1c(C)cccc1C [compound 2607] | 120 to 150% | – | –
COc1ncc(NC(=O)c2cc(NC(C)=O)ccc2Cl)cc1S(=O)(=O)Nc1c(C)cccc1C [compound 2669] | 151 to 180% | – | –
COc1ncc(NC(=O)c2ccns2)cc1S(=O)(=O)Nc1c(C)cccc1C [compound 2617] | 120 to 150% | – | –
COCCn1ccc(C(=O)Nc2cnc(OC)c(S(=O)(=O)Nc3c(C)cccc3C)c2)n1 [compound 2665] | 120 to 150% | – | –
COc1ncc(NC(=O)c2oncc2C)cc1S(=O)(=O)Nc1c(C)cccc1C [compound 2708] | 120 to 150% | – | –
COc1ncc(NC(=O)c2cccc(CN3CCCC3)c2)cc1S(=O)(=O)Nc1c(C)cccc1C [compound 2591] | 151 to 180% | – | –
CCCC(C)c1cc(NS(=O)(=O)c2cc(NC(=O)c3ncc(-c4ccccc4)o3)cnc2OC)on1 (stereo not drawn) [compound 1648] | – | 20 to 100 µM | 119 to 159%
COc1ncc(NC(=O)c2snnc2C2CC2)cc1S(=O)(=O)Nc1c(C)cccc1C [compound 2720] | 181 to 352% | – | –
COc1ccnc(C(=O)Nc2cnc(OC)c(S(=O)(=O)Nc3c(C)cccc3C)c2)c1 [compound 2657] | 181 to 352% | – | –
COc1ncc(NC(=O)c2ncc(-c3ccccc3)o2)cc1S(=O)(=O)Nc1cc(C(F)(F)F)n[nH]1 [compound 2361] | – | 20 to 100 µM | 119 to 159%
